Source: patent US20060111305A1, “Metabolites of certain [1,4]diazepino[6,7,1-ij]quinoline derivatives and methods of preparation and use thereof” (Wyeth, priority 2004, published 2006)
Where “and” joins values, the source holds several entries; their conditions need not be identical. Identical values can stand only once. Like-named read-outs stand apart in the source and are kept apart here.

Test: Concentrations of DCDQ and DCDQ carbamoyl glucuronide (M6) in human plasma, LC/SRM (Table 34)
Type: in vivo, healthy human subjects
Settings: for concentration at 6 h / concentration at 12 h / concentration at 24 h: human, oral, read-out: M6 concentration in plasma; for concentration at 6 h / concentration at 12 h / concentration at 24 h / M6 to DCDQ Ratios / M6 concentration in plasma: plasma
Method: Drug administration and specimen collection were performed in a randomized, double-blinded, placebo-controlled, ascending single dose study of the safety, tolerability, pharmacokinetics, and pharmacodynamics of DCDQ administered orally to healthy subjects and subjects with schizophrenia and schizoaffective disorder. The specimens were stored at approximately −70° C. until analysis for metabolite profiles and for ratios of carbamoyl glucuronide (M6) to DCDQ.
Plasma samples from fasted subjects 25, 28 and 30 in the 50 mg single dose group, fasted subjects 50, 51, 54 in the 200 mg single dose group, fasted subjects 74, 76, 79 in the 300 mg single dose group, fed subjects 83, 84, 86 in the 300 mg single dose group and fasted subjects 92, 94, 96 in the 500 mg single dose group were analyzed for DCDQ carbamoyl glucuronide (M6) concentrations. The internal standard d8-DCDQ (25 μL of 200 ng/mL methanol solution) was added to 100 μL of the plasma samples, followed by the addition of 300 μL of acetonitrile. The samples were mixed and centrifuged at 14000 rpm in an Eppendorf 5415C centrifuge (Brinkman Instruments Inc., Westbury, N.Y.) for 10 minutes. The supernatant of each sample was transferred to a clean tube and evaporated to dryness under a stream of nitrogen in a TurboVap LV evaporator (Caliper Life Sciences, Hopkinton, Mass.). The residue was reconstituted with 50 μL of methanol followed by the addition of 150 μL of water. The sample was mixed and centrifuged as described above. The supernatant was analyzed by LC/MS/MS analysis. Samples for standard curves were prepared with control plasma spiked with synthetic M6. The concentrations of M6 used for the standard curve ranged from 0 to 2500 ng/mL plasma.
LC/MS System 3 was used for semi-quantitative analysis of metabolite M6 (DCDQ carbamoyl glucuronide) in plasma and urine samples. The HPLC equipment for this LC/MS System consisted of a Thermo Surveyor HPLC (Thermo Electron Corp., San Jose, Calif.), including a Surveyor MS pump and autosampler. Separations were accomplished on a 5 micron Phenomenex Luna C18(2) column, 150×2 mm (Phenomenex, Torrance, Calif.). The autosampler and column temperatures were set at 5° C. and 40° C., respectively. The HPLC mobile phase consisted of 10 mM ammonium acetate (A) and methanol (B), and was delivered at 0.2 mL/min. The linear mobile phase gradient (HPLC Gradient 2) is shown below. During LC/MS sample analysis, up to 3 min of the initial flow was diverted away from the mass spectrometer prior to evaluation of metabolites.
The mass spectrometer used for semi-quantitative anslysis with LC/MS System 3 was a Finnigan TSQ Quantum triple quadrupole mass spectrometer (Thermo Electron Corp.). The mass spectrometer was equipped with an electrospray interface and operated in the positive ionization mode. Settings for this mass spectrometer are listed below.
LC/MS/MS analysis in the selected reaction monitoring (SRM) mode (LC/SRM) was conducted for DCDQ and M6 using the following settings.
The computer program Microsoft Excel® 97 was used to calculate means and standard deviations and to perform the student t-test. Xcalibur (version 1.3) and MassLynx software (version 4.0) were used for collection and analysis of LC/MS data. Peak area ratios of M6 to the internal standard were used for quantitation of M6 in plasma samples.

[1] = 50 mg (fasted), 6 hr, individual subjects
[2] = 50 mg (fasted), 12 hr, individual subjects
[3] = 50 mg (fasted), 24 hr, individual subjects
[4] = 200 mg (fasted), 6 hr, individual subjects
[5] = 200 mg (fasted), 12 hr, individual subjects
[6] = 200 mg (fasted), 24 hr, individual subjects
[7] = 300 mg (fasted), 6 hr, individual subjects
[8] = 300 mg (fasted), 12 hr, individual subjects
[9] = 300 mg (fasted), 24 hr, individual subjects
[10] = 300 mg (fed), 6 hr, individual subjects
[11] = 300 mg (fed), 12 hr, individual subjects

O=C(O)[C@H]1O[C@@H](OC(=O)N2CCN3C[C@@H]4CCC[C@@H]4c4cccc(c43)C2)[C@H](O)[C@@H](O)[C@@H]1O [Metabolite M6, carbamoyl glucuronide of DCDQ]
differences in M6 concentrations and M6 to DCDQ ratios between fasted and fed subjects (300 mg of DCDQ): no statistically significant differences
concentration at 6 h (50 mg, 50 mg (fasted), 6 hr, Mean ± S.D.): 114 ± 26.9 ng/mL
concentration at 6 h (50 mg, 50 mg (fasted), 6 hr, individual subjects): 127 ng/mL
concentration at 12 h (50 mg, 50 mg (fasted), 12 hr, Mean ± S.D.): 12.4 ± 5 ng/mL
concentration at 24 h (50 mg, 50 mg (fasted), 24 hr, Mean (standard deviation not calculated)): 3.35 ng/mL
concentration at 24 h (50 mg, 50 mg (fasted), 24 hr, individual subjects): 3.1 ng/mL
concentration at 6 h (200 mg, 200 mg (fasted), 6 hr, Mean ± S.D.): 352 ± 228 ng/mL
concentration at 12 h (200 mg, 200 mg (fasted), 12 hr, Mean ± S.D.): 43.6 ± 17.1 ng/mL
concentration at 24 h (200 mg, 200 mg (fasted), 24 hr, Mean ± S.D.): 7.67 ± 2.5 ng/mL
concentration at 24 h (200 mg, 200 mg (fasted), 24 hr, individual subjects): 4.8 ng/mL
concentration at 6 h (300 mg, 300 mg (fasted), 6 hr, Mean ± S.D.): 237 ± 108 ng/mL
concentration at 12 h (300 mg, 300 mg (fasted), 12 hr, Mean ± S.D.): 88.7 ± 51.8 ng/mL
concentration at 24 h (300 mg, 300 mg (fasted), 24 hr, Mean ± S.D.): 28.9 ± 18.4 ng/mL
concentration at 6 h (300 mg, 300 mg (fed), 6 hr, Mean ± S.D.): 579 ± 354 ng/mL
concentration at 12 h (300 mg, 300 mg (fed), 12 hr, Mean ± S.D.): 286 ± 251 ng/mL
concentration at 24 h (300 mg, 300 mg (fed), 24 hr, Mean ± S.D.): 59 ± 75.9 ng/mL
concentration at 6 h (500 mg, 500 mg (fasted), 6 hr, Mean ± S.D.): 1020 ± 444 ng/mL
concentration at 12 h (500 mg, 500 mg (fasted), 12 hr, Mean ± S.D.): 178 ± 30.1 ng/mL
concentration at 12 h (500 mg, 500 mg (fasted), 12 hr, individual subjects): 146 ng/mL
concentration at 24 h (500 mg, 500 mg (fasted), 24 hr, Mean ± S.D.): 49.6 ± 32.6 ng/mL
M6 to DCDQ Ratios (50 mg (fasted), 6 hr, Mean ± S.D.): 74.3 ± 59.6
M6 concentration in plasma [1]: 132 ng/mL and 83.1 ng/mL
M6 to DCDQ Ratios [1]: 141 and 26.4
M6 to DCDQ Ratios (50 mg (fasted), 12 hr, Mean ± S.D.): 14.8 ± 7.87
M6 concentration in plasma [2]: 15.1 ng/mL and 6.60 ng/mL and 15.4 ng/mL
M6 to DCDQ Ratios [2]: 21.6 and 16.5 and 6.16
M6 to DCDQ Ratios (50 mg (fasted), 24 hr, Mean (standard deviation not calculated)): 10.8
M6 concentration in plasma [3]: 3.6 ng/mL
M6 to DCDQ Ratios [3]: 15.5 and 6.00
M6 to DCDQ Ratios (200 mg (fasted), 6 hr, Mean ± S.D.): 45.2 ± 34.0
M6 concentration in plasma [4]: 225 ng/mL and 615 ng/mL and 216 ng/mL
M6 to DCDQ Ratios [4]: 83.3 and 34.2 and 18.0
M6 to DCDQ Ratios (200 mg (fasted), 12 hr, Mean ± S.D.): 14.3 ± 14.8
M6 concentration in plasma [5]: 37.5 ng/mL and 62.9 ng/mL and 30.3 ng/mL
M6 to DCDQ Ratios [5]: 31.3 and 6.84 and 4.73
M6 to DCDQ Ratios (200 mg (fasted), 24 hr, Mean ± S.D.): 8.42 ± 6.68
M6 concentration in plasma [6]: 8.8 ng/mL and 9.4 ng/mL
M6 to DCDQ Ratios [6]: 16.0 and 3.38 and 5.88
M6 to DCDQ Ratios (300 mg (fasted), 6 hr, Mean ± S.D.): 46.1 ± 21.6
M6 concentration in plasma [7]: 123 ng/mL and 249 ng/mL and 339 ng/mL
M6 to DCDQ Ratios [7]: 58.9 and 58.3 and 21.2
M6 to DCDQ Ratios (300 mg (fasted), 12 hr, Mean ± S.D.): 23.5 ± 5.10
M6 concentration in plasma [8]: 43.0 ng/mL and 78.0 ng/mL and 145 ng/mL
M6 to DCDQ Ratios [8]: 28.7 and 23.4 and 18.5
M6 to DCDQ Ratios (300 mg (fasted), 24 hr, Mean ± S.D.): 24.1 ± 22.7
M6 concentration in plasma [9]: 48.5 ng/mL and 12.0 ng/mL and 26.3 ng/mL
M6 to DCDQ Ratios [9]: 49.9 and 6.98 and 15.5
M6 to DCDQ Ratios (300 mg (fed), 6 hr, Mean ± S.D.): 76.6 ± 54.9
M6 concentration in plasma [10]: 860 ng/mL and 696 ng/mL and 182 ng/mL
M6 to DCDQ Ratios [10]: 45.3 and 44.6 and 140
M6 concentration in plasma [11]: 279 ng/mL and 38.1 ng/mL and 540 ng/mL
M6 to DCDQ Ratios [11]: 25.6 and 4.73
M6 concentration in plasma (300 mg (fed), 24 hr, individual subjects): 24.6 ng/mL and 6.40 ng/mL and 146 ng/mL
M6 concentration in plasma (500 mg (fasted), 6 hr, individual subjects): 1324 ng/mL and 508 ng/mL and 1221 ng/mL
M6 concentration in plasma (500 mg (fasted), 12 hr, individual subjects): 181 ng/mL and 206 ng/mL
M6 concentration in plasma (500 mg (fasted), 24 hr, individual subjects): 58.3 ng/mL and 13.5 ng/mL and 77.0 ng/mL
